The values below come from patent US20250197387A1, “BCL-XL DEGRADERS AND USES THEREOF” (Kymera Therapeutics, Inc., priority 2021, published 2025).

What is called Dmax is the greatest extent of degradation seen. A word on the DC50: it is the concentration giving 50% degradation. Usually IC50 stands for the concentration that gives 50% inhibition.

What all share (assay type): cell-based
The target in assay [1] is T1, BCL-XL (Homo sapiens, UniProt Q07817).
T1 construct: endogenous in cells; host or cells: MOLT-4
In words: BCL-XL degradation assay, western blot in MOLT-4 cells, 16 h. Conditions: western blot, MOLT-4 cells, 16 h; for Dmax: read-out: Bcl-xL WB in MOLT-4 degradation 16 h: Average Dmax %; for DC50: read-out: Bcl-xL WB in MOLT-4 degradation 16 h: Mean external-Abs DC50. In a few lines:
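MOLT-4 cells treated with compounds at 0.02-10 μM final for 16 hr at 37° C; lysates analysed by western blot with anti-BCL-xL, beta-actin and GAPDH loading controls, infrared imaging and densitometry; DC50 and Dmax % reported as letter codes.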
A general note: In western blotting, separated proteins are transferred to a membrane and probed.

Another assay deals with MOLT-4 cells. In words: CTG (CellTiter-Glo) cell viability assay, MOLT-4. Conditions: Homo sapiens, 3 day incubation, read-out: CTG Cell Viability Assay - MOLT-4 3 day: Average external-IC50. The procedure, abridged: (§1)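 Luminescence from CellTiter-Glo, read after 3 days of compound exposure at 37 °C, gave viability; IC50 values came from three-parameter logistic curves. Cells were plated at 10,000 per well and dosed over nine 1:3 steps topping at 10 μM.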

A further assay concerns Caki-2 cells. In words: CTG (CellTiter-Glo) cell viability assay, Caki-2. The note with it: Homo sapiens, 72 h, 3 day incubation, read-out: CTG Chempartner - Caki-2 3 day: Average external-IC50. In a few lines: as §1
In assay [2] the target is T1, BCL-XL. Put plainly: Bcl-xL ELISA degradation in MOLT-4 cells, 6 h. Conditions: for DC50: read-out: Bcl-xL ELISA in MOLT-4 degradation 6 h: Mean external-Abs DC50. As to the method:
The letter codes for BCL-XL DC50 include: A (<0.01 μM); B (0.01-0.1 μM); C (>[…]); D (>0.5-1.0 μM); and E (>1.0 μM). The letter codes for Dmax % include A (>75%); B (50 to 75%); C (<50%).
On the technique in general: In an ELISA, binding on a coated surface is turned into a signal by an enzyme label.

SMILES strings stand for the structures. Like-named read-outs stand apart in the source and are kept apart here. A value given as a limit tells only on which side of the number the result lay.

T1 sequence (Q07817 whole entry): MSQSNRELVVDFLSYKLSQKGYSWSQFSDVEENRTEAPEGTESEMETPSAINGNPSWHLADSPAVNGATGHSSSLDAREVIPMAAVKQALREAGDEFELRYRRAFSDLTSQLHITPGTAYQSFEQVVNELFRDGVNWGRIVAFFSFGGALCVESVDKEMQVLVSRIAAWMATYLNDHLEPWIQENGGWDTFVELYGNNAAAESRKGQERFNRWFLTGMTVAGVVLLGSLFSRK

Turning to `Cc1ncsc1-c1ccc([C@H](C)NC(=O)[C@@H]2C[C@@H](O)CN2C(=O)[C@@H](NC(=O)N2CC3(C2)CN(c2ccc(S(=O)(=O)NC(=O)c4nc(N5CCc6cccc(C(=O)Nc7nc8ccccc8s7)c6C5)ccc4-c4cnn(CC5CCCCC5)c4C)cc2)C3)C(C)(C)C)cc1` [I-196], at BCL-XL [1], the Dmax lay within 50 to 75% and the DC50 was below 10 nM. Besides, the IC50 in the assay on MOLT-4 cells (MOLT-4, 72 h) was in the range of 100 to 1000 nM. Also, the IC50 in the assay with Caki-2 cells lay in the range of 1000 to 10000 nM.

For `Cc1cc(N(C)c2ccc(-c3cnn(CC4CCCCC4)c3C)c(C(=O)NS(=O)(=O)CCCCCC(=O)N[C@H](C(=O)N3C[C@H](O)C[C@H]3C(=O)N[C@@H](C)c3ccc(-c4scnc4C)cc3)C(C)(C)C)n2)nnc1Nc1nc2ccccc2s1` [I-120], the greatest degradation seen (Dmax) on BCL-XL [1] was above 75%. Besides, the DC50 on BCL-XL [1] was 10 to 100 nM. Moreover, the IC50 in the assay with MOLT-4 cells (MOLT-4, 72 h) was 100 to 1000 nM; in the assay with Caki-2 cells, above 10000 nM.

With `Cc1ncsc1-c1ccc([C@H](C)NC(=O)[C@@H]2C[C@@H](O)CN2C(=O)[C@@H](NC(=O)c2ccc(CCS(=O)(=O)NC(=O)c3nc(N4CCc5cccc(C(=O)Nc6nc7ccccc7s6)c5C4)ccc3-c3cnn(CC4CCCCC4)c3C)cc2)C(C)(C)C)cc1` [I-143], at BCL-XL [1], the Dmax was above 75% and the DC50 was below 10 nM. Besides, the IC50 in the assay with MOLT-4 cells (MOLT-4, 72 h) was below 100 nM. Moreover, the IC50 in the assay with Caki-2 cells was in the range of 1000 to 10000 nM.

Consider `Cc1ncsc1-c1ccc(CNC(=O)[C@@H]2C[C@@H](O)CN2C(=O)[C@@H](NC(=O)C2(F)CC2)C(C)(C)C)c(OCCN2CCN(C(=O)c3nc(N4CCc5cccc(C(=O)Nc6nc7ccccc7s6)c5C4)ccc3-c3cnn(CC4CCCCC4)c3C)CC2)c1` [I-201], for which, at BCL-XL [1], the Dmax was above 75% and the DC50 is 10 to 100 nM. In the assay with MOLT-4 cells (MOLT-4, 72 h), the half-inhibitory concentration (IC50) fell in the range of 100 to 1000 nM. In the assay with Caki-2 cells, the IC50 was above 10000 nM.

As to `Cc1ncsc1-c1ccc([C@H](C)NC(=O)[C@@H]2C[C@@H](O)CN2C(=O)[C@@H](NC(=O)CCCCCS(=O)(=O)NC(=O)c2nc(N3CCc4cccc(C(=O)Nc5nc6ccccc6s5)c4C3)ccc2-c2cccc3c2cnn3C(C)C)C(C)(C)C)cc1` [I-302], at BCL-XL [2], the Dmax lay in the range of 50 to 75%. Further, the DC50 on BCL-XL [2] was 500 to 1000 nM. Further, the IC50 lay in the range of 1000 to 3000 nM with MOLT-4 cells (MOLT-4, 72 h) and 1000 to 10000 nM in the assay with Caki-2 cells.

In the case of `Cc1cc(N(C)c2ccc(-c3cnn(CC45CC6CC(CC(C6)C4)C5)c3C)c(C(=O)NS(=O)(=O)CCCCCC(=O)N[C@H](C(=O)N3C[C@H](O)C[C@H]3C(=O)N[C@@H](C)c3ccc4c(c3)c(C)nn4C)C(C)(C)C)n2)nnc1Nc1nc2ccccc2s1` (single isomer, unassigned) [I-491], the Dmax at BCL-XL [2] is above 75%. For the same compound, on BCL-XL [2], the DC50 was below 10 nM. The IC50 in the assay with MOLT-4 cells (MOLT-4, 72 h) is below 100 nM; in the assay with Caki-2 cells, above 10000 nM.

As to `Cc1cc(N(C)c2ccc(-c3cnn(CC45CC6CC(CC(C6)C4)C5)c3C)c(C(=O)NS(=O)(=O)CCCC(=O)N[C@H](C(=O)N3C[C@H](O)C[C@H]3C(=O)N[C@@H](C)c3ccc(-c4scnc4C)cc3)C(C)(C)C)n2)nnc1Nc1nc2ccccc2s1` [I-370], on BCL-XL [2], the Dmax was above 75% and the DC50 lay within 10 to 100 nM. In addition, the IC50 in the assay with MOLT-4 cells (MOLT-4, 72 h) is below 100 nM. The IC50 in the assay on Caki-2 cells was above 10000 nM.

As for `Cc1ncsc1-c1ccc([C@H](C)NC(=O)[C@@H]2C[C@@H](O)CN2C(=O)[C@@H](NC(=O)CCCCc2ccc(NC(=O)c3nc(N4CCc5cccc(C(=O)Nc6nc7ccccc7s6)c5C4)ccc3-c3cnn(CC4CCCCC4)c3C)cc2)C(C)(C)C)cc1` [I-298], at BCL-XL [2], the Dmax is below 50% and the DC50 lay in the range of 500 to 1000 nM. Besides, the IC50 in the assay on MOLT-4 cells (MOLT-4, 72 h) lay in the range of 100 to 1000 nM. Further, the IC50 with Caki-2 cells lay in the range of 1000 to 10000 nM.

Turning to `Cc1cc(N(C)c2ccc(-c3cnn(CC4CCCC4)c3C)c(C(=O)NS(=O)(=O)c3ccc(N4CCC(C(=O)N[C@H](C(=O)N5C[C@H](O)C[C@H]5C(=O)N[C@@H](C)c5ccc(-c6scnc6C)cc5)C(C)(C)C)CC4)cc3)n2)nnc1Nc1nc2cccnc2s1` [I-457], at BCL-XL [2], the Dmax was 50 to 75%. The DC50 on BCL-XL [2] lay in the range of 500 to 1000 nM. The IC50 was 1000 to 3000 nM in the assay with MOLT-4 cells (MOLT-4, 72 h) and above 10000 nM in the assay with Caki-2 cells.

`Cc1ncsc1-c1ccc([C@H](C)NC(=O)[C@@H]2C[C@@H](O)CN2C(=O)[C@@H](NC(=O)C2CCN(C3CCN(S(=O)(=O)NC(=O)c4nc(N5CCc6cccc(C(=O)Nc7nc8ccccc8s7)c6C5)ccc4-c4cnn(CC5CCCCC5)c4C)CC3)CC2)C(C)(C)C)cc1` [I-308]: at BCL-XL [2], the Dmax was above 75% and the DC50 is 100 to 500 nM. Also, the IC50 with MOLT-4 cells (MOLT-4, 72 h) was below 100 nM. Moreover, the IC50 in the assay on Caki-2 cells was 1000 to 10000 nM.

As for `C#Cc1ccc(CNC(=O)[C@@H]2C[C@@H](O)CN2C(=O)[C@@H](NC(=O)CCCCS(=O)(=O)NC(=O)c2nc(N(C)c3cc(C)c(Nc4nc5ccccc5s4)nn3)ccc2-c2cnn(CC34CC5CC(CC(C5)C3)C4)c2C)C(C)(C)C)cc1` [I-369], the Dmax on BCL-XL [2] is above 75%. In addition, on BCL-XL [2], the DC50 lay within 10 to 100 nM. Moreover, the IC50 with MOLT-4 cells (MOLT-4, 72 h) was below 100 nM; with Caki-2 cells, above 10000 nM.

In the case of `Cc1ncsc1-c1ccc([C@H](C)NC(=O)[C@@H]2C[C@@H](O)CN2C(=O)[C@@H](NC(=O)CCS(=O)(=O)NC(=O)c2nc(N3CCc4cccc(C(=O)Nc5nc6ccccc6s5)c4C3)ccc2-c2cnn(CC3CCCCC3)c2C)C(C)(C)C)cc1` [I-311], on BCL-XL [2], the Dmax is above 75%. On BCL-XL [2], the DC50 was in the range of 100 to 500 nM. In addition, the IC50 in the assay with MOLT-4 cells (MOLT-4, 72 h) is below 100 nM; in the assay with Caki-2 cells, 1000 to 10000 nM.

With `Cc1cc(N(C)c2ccc(-c3cnn(CC45CC6CC(CC(C6)C4)C5)c3C)c(C(=O)NS(=O)(=O)CCCCCC(=O)N[C@H](C(=O)N3C[C@H](O)C[C@H]3C(=O)NCc3ccc(-c4scnc4C)cc3)C(C)(C)C)n2)nnc1Nc1nc2ccccc2s1` [I-367], on BCL-XL [2], the Dmax is above 75% and the DC50 fell in the range of 10 to 100 nM. The IC50 in the assay with MOLT-4 cells (MOLT-4, 72 h) is below 100 nM. Further, the IC50 with Caki-2 cells is above 10000 nM.

With `Cc1ncsc1-c1ccc([C@H](C)NC(=O)[C@@H]2C[C@@H](O)CN2C(=O)[C@@H](NC(=O)CCCCCS(=O)(=O)NC(=O)c2nc(N3CCc4cccc(C(=O)Nc5nc6cccnc6s5)c4C3)ccc2-c2cnn(CC3CCCCC3)c2C)C(C)(C)C)cc1` [I-363], at BCL-XL [2], the Dmax was above 75% and the DC50 was in the range of 10 to 100 nM. Also, the IC50 with MOLT-4 cells (MOLT-4, 72 h) is below 100 nM. Further, the IC50 in the assay on Caki-2 cells is above 10000 nM.

Turning to `Cc1ncsc1-c1ccc([C@H](C)NC(=O)[C@@H]2C[C@@H](O)CN2C(=O)[C@@H](NC(=O)CN2CCC(CS(=O)(=O)NC(=O)c3nc(N4CCc5cccc(C(=O)Nc6nc7ccccc7s6)c5C4)ccc3-c3cnn(CC4CCCCC4)c3C)CC2)C(C)(C)C)cc1` [I-335], at BCL-XL [2], the Dmax is above 75% and the DC50 was below 10 nM. In addition, in the assay on MOLT-4 cells (72 h), the IC50 is below 100 nM. Further, the IC50 with Caki-2 cells is 1000 to 10000 nM.

For `Cc1ncsc1-c1ccc([C@H](C)NC(=O)[C@@H]2C[C@@H](O)CN2C(=O)[C@@H](NC(=O)C2CCN(c3ccc(S(=O)(=O)NC(=O)c4nc(N5CCc6cccc(C(=O)Nc7nc8ccccc8s7)c6C5)ccc4-c4cnn(CC5CCCCC5)c4C)cc3CC(=O)O)CC2)C(C)(C)C)cc1` [I-296], on BCL-XL [2], the Dmax was in the range of 50 to 75% and the DC50 was in the range of 100 to 500 nM. Also, in the assay with MOLT-4 cells (MOLT-4, 72 h), the IC50 was 100 to 1000 nM. The IC50 in the assay with Caki-2 cells was in the range of 1000 to 10000 nM.

`Cc1ncsc1-c1ccc(CNC(=O)[C@@H]2C[C@@H](O)CN2C(=O)[C@@H](NC(=O)C2CN(CCS(=O)(=O)NC(=O)c3nc(N4CCc5cccc(C(=O)Nc6nc7ccccc7s6)c5C4)ccc3-c3cnn(CC4CCCCC4)c3C)C2)C(C)(C)C)cc1` [I-422]: on BCL-XL [2], the Dmax was above 75% and the DC50 lay in the range of 100 to 500 nM. The IC50 in the assay on MOLT-4 cells (MOLT-4, 72 h) was 100 to 1000 nM. For the same compound, the IC50 with Caki-2 cells is above 10000 nM.
